“And” between values parts separate entries of the source, which are not always exact repeats. Identical values can stand only once. Inconclusive results and toxic doses are left out. Rule for the calls: active = survival T/C of 150% or more; inactive = T/C below 125% in these data.
Tested on: CD2F1 mice, L1210 leukemia ip, survival T/C
Experiment: NCI In Vivo Anticancer Drug Screen. Data for tumor model L1210 Leukemia (intraperitoneal) in CD2F1 (CDF1) mice
Conditions: higher = longer survival
Method in brief: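 Compound-dosed mice with transplantable tumor versus matched vehicle controls; endpoint ratio T/C reported.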

[1] = endpoint: mean survival time, dose: 25.0 mg/kg/injection, schedule: Q01DX009 (ip), vehicle: saline with Tween-80
[2] = endpoint: mean survival time, dose: 50.0 mg/kg/injection, schedule: Q01DX009 (ip), vehicle: saline with Tween-80
[3] = endpoint: mean survival time, dose: 100.0 mg/kg/injection, schedule: Q01DX009 (ip), vehicle: saline with Tween-80
[4] = endpoint: mean survival time, dose: 100.0 mg/kg/injection, schedule: Q04DX003 (ip), vehicle: saline with Tween-80
[5] = endpoint: mean survival time, dose: 200.0 mg/kg/injection, schedule: Q04DX003 (ip), vehicle: saline with Tween-80
[6] = endpoint: mean survival time, dose: 400.0 mg/kg/injection, schedule: Q04DX003 (ip), vehicle: saline with Tween-80
[7] = endpoint: median survival time, dose: 12.5 mg/kg/injection, schedule: Q01DX005 (ip), vehicle: saline
[8] = endpoint: median survival time, dose: 25.0 mg/kg/injection, schedule: Q01DX005 (ip), vehicle: saline
[9] = endpoint: median survival time, dose: 50.0 mg/kg/injection, schedule: Q01DX005 (ip), vehicle: saline

Measured: T/C

CN(C)c1nc(N(C)C)nc(N(C)C)n1
inactive: endpoint: mean survival time, dose: 12.5 mg/kg/injection, schedule: Q01DX009 (ip), vehicle: saline with Tween-80 93 % of control and 103 % of control | endpoint: mean survival time, dose: 20.0 mg/kg/injection, schedule: Q01DX009 (ip), vehicle: Klucel (hydroxypropylcellulose) (HPC) 106 % of control | [1] 97 % of control and 102 % of control | endpoint: mean survival time, dose: 40.0 mg/kg/injection, schedule: Q01DX009 (ip), vehicle: Klucel (hydroxypropylcellulose) (HPC) 102 % of control | endpoint: mean survival time, dose: 50.0 mg/kg/injection, schedule: Q01DX001 (ip), vehicle: saline with Tween-80 96 % of control | [2] 97 % of control and 100 % of control | endpoint: mean survival time, dose: 80.0 mg/kg/injection, schedule: Q01DX009 (ip), vehicle: Klucel (hydroxypropylcellulose) (HPC) 106 % of control | endpoint: mean survival time, dose: 100.0 mg/kg/injection, schedule: Q01DX001 (ip), vehicle: saline with Tween-80 104 % of control | [3] 96 % of control and 97 % of control | endpoint: mean survival time, dose: 160.0 mg/kg/injection, schedule: Q01DX009 (ip), vehicle: Klucel (hydroxypropylcellulose) (HPC) 100 % of control | endpoint: mean survival time, dose: 200.0 mg/kg/injection, schedule: Q01DX001 (ip), vehicle: saline with Tween-80 97 % of control | endpoint: mean survival time, dose: 200.0 mg/kg/injection, schedule: Q01DX009 (ip), vehicle: saline with Tween-80 100 % of control and 103 % of control | endpoint: mean survival time, dose: 400.0 mg/kg/injection, schedule: Q01DX001 (ip), vehicle: saline with Tween-80 104 % of control | endpoint: median survival time, dose: 8.0 mg/kg/injection, schedule: Q03HX024 (ip), vehicle: Klucel (hydroxypropylcellulose) (HPC) 97 % of control | endpoint: median survival time, dose: 16.0 mg/kg/injection, schedule: Q03HX008 (ip), vehicle: Klucel (hydroxypropylcellulose) (HPC) 96 % of control | endpoint: median survival time, dose: 16.0 mg/kg/injection, schedule: Q03HX016 (ip), vehicle: Klucel (hydroxypropylcellulose) (HPC) 96 % of control | endpoint: median survival time, dose: 16.0 mg/kg/injection, schedule: Q03HX024 (ip), vehicle: Klucel (hydroxypropylcellulose) (HPC) 104 % of control | endpoint: median survival time, dose: 32.0 mg/kg/injection, schedule: Q01DX009 (ip), vehicle: Klucel (hydroxypropylcellulose) (HPC) 108 % of control | endpoint: median survival time, dose: 32.0 mg/kg/injection, schedule: Q03HX008 (ip), vehicle: Klucel (hydroxypropylcellulose) (HPC) 100 % of control | endpoint: median survival time, dose: 32.0 mg/kg/injection, schedule: Q03HX016 (ip), vehicle: Klucel (hydroxypropylcellulose) (HPC) 100 % of control | endpoint: median survival time, dose: 32.0 mg/kg/injection, schedule: Q03HX024 (ip), vehicle: Klucel (hydroxypropylcellulose) (HPC) 111 % of control | endpoint: median survival time, dose: 64.0 mg/kg/injection, schedule: Q01DX009 (ip), vehicle: Klucel (hydroxypropylcellulose) (HPC) 107 % of control | endpoint: median survival time, dose: 64.0 mg/kg/injection, schedule: Q04DX003 (ip), vehicle: Klucel (hydroxypropylcellulose) (HPC) 98 % of control | endpoint: median survival time, dose: 128.0 mg/kg/injection, schedule: Q01DX001 (ip), vehicle: Klucel (hydroxypropylcellulose) (HPC) 97 % of control | endpoint: median survival time, dose: 128.0 mg/kg/injection, schedule: Q01DX009 (ip), vehicle: Klucel (hydroxypropylcellulose) (HPC) 102 % of control | endpoint: median survival time, dose: 128.0 mg/kg/injection, schedule: Q04DX003 (ip), vehicle: Klucel (hydroxypropylcellulose) (HPC) 109 % of control | endpoint: median survival time, dose: 128.0 mg/kg/injection, schedule: Q08DX002 (ip), vehicle: Klucel (hydroxypropylcellulose) (HPC) 98 % of control | endpoint: median survival time, dose: 256.0 mg/kg/injection, schedule: Q01DX001 (ip), vehicle: Klucel (hydroxypropylcellulose) (HPC) 98 % of control | endpoint: median survival time, dose: 256.0 mg/kg/injection, schedule: Q04DX003 (ip), vehicle: Klucel (hydroxypropylcellulose) (HPC) 114 % of control | endpoint: median survival time, dose: 256.0 mg/kg/injection, schedule: Q08DX002 (ip), vehicle: Klucel (hydroxypropylcellulose) (HPC) 98 % of control

CC(C)(CC(=O)O)CC(=O)O.[NH-]C1CCCCC1[NH-].[Pt+2]
inactive: endpoint: median survival time, dose: 3.12 mg/kg/injection, schedule: Q04DX003 (ip), vehicle: saline 87 % of control | endpoint: median survival time, dose: 6.25 mg/kg/injection, schedule: Q04DX003 (ip), vehicle: saline 102 % of control | endpoint: median survival time, dose: 12.5 mg/kg/injection, schedule: Q04DX003 (ip), vehicle: saline 98 % of control | endpoint: median survival time, dose: 25.0 mg/kg/injection, schedule: Q04DX003 (ip), vehicle: saline 108 % of control | endpoint: median survival time, dose: 50.0 mg/kg/injection, schedule: Q04DX003 (ip), vehicle: saline 101 % of control | endpoint: median survival time, dose: 100.0 mg/kg/injection, schedule: Q04DX003 (ip), vehicle: saline 103 % of control | endpoint: median survival time, dose: 200.0 mg/kg/injection, schedule: Q04DX003 (ip), vehicle: saline 112 % of control

O=CNCCN(C=O)CCO
inactive: endpoint: mean survival time, dose: 100.0 mg/kg/injection, schedule: Q01DX009 (ip), vehicle: saline 97 % of control | endpoint: mean survival time, dose: 200.0 mg/kg/injection, schedule: Q01DX009 (ip), vehicle: saline 104 % of control | endpoint: mean survival time, dose: 400.0 mg/kg/injection, schedule: Q01DX009 (ip), vehicle: saline 98 % of control

CCOc1ccc(-c2nnc(Nc3ccc(S(=O)(=O)N4CCCCC4)cc3)s2)cc1
inactive: [1] 95 % of control | [2] 90 % of control | [3] 86 % of control

Cc1cc(=NO)cc(C)n1O
inactive: endpoint: median survival time, dose: 25.0 mg/kg/injection, schedule: Q01DX009 (ip), vehicle: distilled water + alcohol 108 % of control | endpoint: median survival time, dose: 50.0 mg/kg/injection, schedule: Q01DX009 (ip), vehicle: distilled water + alcohol 104 % of control | endpoint: median survival time, dose: 100.0 mg/kg/injection, schedule: Q01DX009 (ip), vehicle: distilled water + alcohol 112 % of control | endpoint: median survival time, dose: 200.0 mg/kg/injection, schedule: Q01DX009 (ip), vehicle: distilled water + alcohol 108 % of control | endpoint: median survival time, dose: 400.0 mg/kg/injection, schedule: Q01DX009 (ip), vehicle: distilled water + alcohol 97 % of control

COC(=O)C1(C)CCCC2(C)C3CC4OC4(C(C)C)CC3(O)CCC12 (stereo not drawn)
inactive: [4] 96 % of control | [5] 96 % of control | [6] 98 % of control

C=CCOCCC#N
inactive: [3] 95 % of control

Cc1ccc(C2=CSC3=NCCN23)cc1Cl
inactive: endpoint: median survival time, dose: 6.25 mg/kg/injection, schedule: Q01DX005 (ip), vehicle: saline 116 % of control | [7] 108 % of control | [8] 109 % of control | [9] 100 % of control

COc1nc(NC2OC(CO)C(O)C(O)C2O)cc(=O)[nH]1 (stereo not drawn)
inactive: [7] 105 % of control | [8] 97 % of control | [9] 100 % of control | endpoint: median survival time, dose: 100.0 mg/kg/injection, schedule: Q01DX005 (ip), vehicle: saline 100 % of control | endpoint: median survival time, dose: 200.0 mg/kg/injection, schedule: Q01DX005 (ip), vehicle: saline 102 % of control

COc1ccc(-c2c3nc(c(-c4ccc(OC)cc4)c4ccc([nH]4)c(-c4ccc(OC)cc4)c4nc(c(-c5ccc(OC)cc5)c5ccc2[nH]5)C=C4)C=C3)cc1
inactive: endpoint: mean survival time, dose: 100.0 mg/kg/injection, schedule: Q04DX003 (ip), vehicle: Klucel (hydroxypropylcellulose) (HPC) 93 % of control | endpoint: mean survival time, dose: 200.0 mg/kg/injection, schedule: Q04DX003 (ip), vehicle: Klucel (hydroxypropylcellulose) (HPC) 101 % of control | endpoint: mean survival time, dose: 400.0 mg/kg/injection, schedule: Q04DX003 (ip), vehicle: Klucel (hydroxypropylcellulose) (HPC) 89 % of control

O=C(Nc1cccnc1)c1cccc([N+](=O)[O-])c1
inactive: endpoint: mean survival time, dose: 25.0 mg/kg/injection, schedule: Q01DX009 (ip), vehicle: Klucel (hydroxypropylcellulose) (HPC) 108 % of control | endpoint: mean survival time, dose: 25.0 mg/kg/injection, schedule: Q04DX002 (ip), vehicle: Klucel (hydroxypropylcellulose) (HPC) 97 % of control | endpoint: mean survival time, dose: 50.0 mg/kg/injection, schedule: Q01DX009 (ip), vehicle: Klucel (hydroxypropylcellulose) (HPC) 110 % of control | endpoint: mean survival time, dose: 50.0 mg/kg/injection, schedule: Q04DX002 (ip), vehicle: Klucel (hydroxypropylcellulose) (HPC) 102 % of control | endpoint: mean survival time, dose: 100.0 mg/kg/injection, schedule: Q01DX009 (ip), vehicle: Klucel (hydroxypropylcellulose) (HPC) 93 % of control | endpoint: mean survival time, dose: 100.0 mg/kg/injection, schedule: Q04DX002 (ip), vehicle: Klucel (hydroxypropylcellulose) (HPC) 97 % of control | endpoint: mean survival time, dose: 200.0 mg/kg/injection, schedule: Q01DX009 (ip), vehicle: Klucel (hydroxypropylcellulose) (HPC) 92 % of control | endpoint: mean survival time, dose: 200.0 mg/kg/injection, schedule: Q04DX002 (ip), vehicle: Klucel (hydroxypropylcellulose) (HPC) 96 % of control

CC(C)(C)C(=O)CC(=O)C(C)(C)C.CC(C)(C)C(=O)CC(=O)C(C)(C)C.CC(C)(C)C(=O)CC(=O)C(C)(C)C.[Nd]
inactive: [4] 101 % of control | [5] 95 % of control | [6] 95 % of control

CCOC(=O)c1c(C)c2c(n1C)CC/C(=C\N1CCCCC1)C2=O
inactive: endpoint: mean survival time, dose: 100.0 mg/kg/injection, schedule: Q04DX002 (ip), vehicle: saline with Tween-80 111 % of control | endpoint: mean survival time, dose: 200.0 mg/kg/injection, schedule: Q04DX002 (ip), vehicle: saline with Tween-80 118 % of control | endpoint: mean survival time, dose: 400.0 mg/kg/injection, schedule: Q04DX002 (ip), vehicle: saline with Tween-80 96 % of control

— PubChem BioAssay AID256 (DTP/NCI, 2004)
